Assay results as given in patent publication US20240180889A1, “COMBINATION THERAPY FOR COVID-19 VACCINATION” (priority 2021, published 2024).

Assays:
MCF-7 cells = assay type: cell-based
[1] = system: Tartrate Resistant Acid Phosphatase (TRAP) activity in RAW-OC cells; assay type: cell-based, mouse
MDA-MB-231 cells = assay type: cell-based, human

Row | Structure (SMILES) | effect on proliferation promoting activity of 17β-estradiol and spike (MCF-7 cells) | effect on the estradiol- or spike-induced decrease in TRAP activity [1] | cell proliferation (BrdU) (MDA-MB-231 cells) | activity of TRAP [1]
1 | O=C(c1ccc(OCCN2CCCCC2)cc1)c1c(-c2ccc(O)cc2)sc2cc(O)ccc12 [Raloxifene, raloxifene] | blocked | blocked |  | 
2 | C[C@]12CC[C@@H]3c4ccc(O)cc4CC[C@H]3[C@@H]1CC[C@@H]2O [17β-estradiol] |  |  | do not significantly affect cell proliferation | superimposable decrease
